In patent US11446286B1 (KING FAISAL UNIVERSITY, priority 2022, dated 2022):
In brackets after ≈: the same amount, converted by molar mass.

Tests used:
[1] = test system: A. fumigatus systemic infection; test: Systemic aspergillosis mouse model; format: in vivo, mice; conditions: for liver histopathology (H&E): vs infected animals; for heart histopathology (H&E): vs infected group; for serum levels of ALT, AST, uric acid, and creatinine: systemic A. fumigatus infection, day 7, compared with infected nontreated group (combination: also vs noninfected control)
Protocol: (§1) Four-week-old mice were obtained from Kafrelshikh university animal sourcing. Food and water were given ad libitum. The mice were handled according to the instructions and regulations of the ethics committee.
(§2) To help in the induction of fungal infection, mice were immunocompromised by Endoxan® (cyclophosphamide), injected i.v. at a dose rate of 100 mg/kg. The injection of cyclophosphamide was at three and one days before infection. Systemic candidiasis and aspergillosis were induced by intravenous injection of 0.2 ml of each cell suspension into the tail vein using 1-ml syringe and a 27-G, ½-in. needle. The C. albicans cells and Aspergillus conidia were obtained as described above. After plating, the cells were suspended in sterile saline. Each mouse received 5×10^4 blastospores. All drugs were given at a dose rate of 5 mg/kg via the oral route suspended in methylcellulose. […] Treatment was continued daily for seven days. On the seventh day, the mice were sacrificed, and blood and tissue samples were collected. Tissue samples from liver, kidney, lungs, and heart were stored in 10% formalin and fixed for histopathological and immunohistochemical examination.
(§3) Standard histopathological sections stained with hematoxylin and eosin were performed. Immunohistochemistry was performed following the instructions of the antibodies manufacturer (Theiino Scientific, Waltman, MA, USA). The antibodies comprised CD45 and CXCR4.
Serum samples from the systemic Aspergillus experiments discussed above were analyzed using known techniques to detect serum levels of ALT, AST, uric acid, and creatinine.

[2] = test system: C. albicans systemic infection; test: Systemic candidiasis mouse model; format: in vivo, mice; conditions: for lung histopathology (H&E): vs non-treated infected mice; for serum levels of ALT, AST, uric acid, and creatinine: systemic candidiasis, day 7, compared with infected nontreated group (combination: also vs noninfected control)
Protocol: as §1, §2, §3
Serum samples from the systemic candidiasis experiments discussed above were analyzed using known techniques to detect serum levels of ALT, AST, uric acid, and creatinine.

[3] = test system: Penicillium expansurn RCMB 001001 IMI28169; test: In vitro antifungal assay (agar well); format: cell-based, Penicillium expansum
Protocol: (§4) In vitro studies were performed including a total of 31 fungal strains. The strains were obtained from the American Type Culture Collection (ATCC) or were isolated locally and provided by the fungal research centers at Alazhar and Assiut universities, Egypt. Dabigatran's antifungal activity was tested against 31 fungal strains, as previously described. (Johnson, T. R. and Case, C. L., “Laboratory experiments in microbiology” Pearson/Benjamin Cummings (2004)) The in vitro studies included a total of 31 fungal strains. Fungal strains were separately grown in universal tubes with 20 ml of Sabouraud's dextrose broth for 3-7 days to create inocula for antifungal tests. Bioassays were carried out in 10 cm sterile Petri dishes containing 15 ml Sabouraud's dextrose agar medium and microbial suspension. Using a sterile cork borer, 5 mm diameter cavities were bored in the solidified agar (3 cavities/plate) after the media had hardened. […] Controls were prepared using DMSO and fluconazole. Candida cultures were incubated for 72 hours at 27° C., while other fungal cultures were incubated for up to seven days.

[4] = test system: C. albicans vaginal infection; test: Vaginal candidiasis mouse model; format: in vivo, mice; conditions: for CD45-positive cells in vaginal tissue (IHC, semi-quantitative) / vaginal histology (H&E): topical into the vagina 5 mg/kg daily for seven days; for CXCR4 expression in the vaginal epithelial mucosa (IHC): treated for 7 days, vs C. albicans infected Model animals
Protocol: Standard histopathological sections stained with hematoxylin and eosin were performed. Immunohistochemistry was performed following the instructions of the antibodies manufacturer (Theiino Scientific, Waltman, MA, USA). The antibodies comprised CD45 and CXCR4. Mice vagina infected with C. albicans was used to evaluate the anticandidal actions of dabigatran. To help in induction of vaginal candidiasis, mice were immunocompromised by injection of 0.1 mg of β-estradiol in 10 μl of sesame oil 72 h and 24 h before vaginal infection for induction of estrus. Infection was done during the estrus phase by intravaginal dropping of the Candida blastoconidia. Each mouse received 3×10^6 blastospores into the vaginal cavity. Uninoculated control mice (the control group) were injected intravaginally with sterile saline. […] All drugs were given topically into the vagina at a dose rate of 5 mg/kg daily for seven days post-infection. On the seventh day, the mice were sacrificed, and blood and vaginal samples were collected. At ×400 magnification, five visual random fields were analyzed. An adopted procedure was used to assess the degree of infection and inflammation (Zhang, J. E., et al., “Feasibility of histological scoring and colony count for evaluating infective severity in mouse vaginal candidiasis,” Experimental Animals, 62(3): pp. 205-10 (2013)). The average scores of five fields were recorded.

[5] = test system: Aspergillus furnigatus (RCMB 002008); test: In vitro antifungal assay (agar well); format: cell-based, Aspergillus fumigatus
Protocol: as §4

31 fungal strains = test: In vitro antifungal assays, all isolates; format: cell-based; conditions: over the fungal strains tested
Protocol: as §4

[6] = test system: Geotricurn candidum RCMB 026008; test: In vitro antifungal assay (agar well); format: cell-based, Geotricum candidum
Protocol: as §4

[7] = test system: Syncephalastrurn racemosum RCMB 016001; test: In vitro antifungal assay (agar well); format: cell-based, Syncephalastrum racemosum
Protocol: as §4

[8] = test system: Candida tropicalis RCMB 005004; test: In vitro antifungal assay (agar well); format: cell-based; conditions: 72 hours at 27° C.
Protocol: as §4

[9] = test system: Penicillium marneffei AUMC No. 9370; test: In vitro antifungal assay (agar well); format: cell-based
Protocol: as §4

[10] = test system: Aspergillus terreus AUMC No. 14389; test: In vitro antifungal assay (agar well); format: cell-based
Protocol: as §4

[11] = test system: Cryptococcus neoformas RCMB 0049001; test: In vitro antifungal assay (agar well); format: cell-based
Protocol: as §4

[12] = test system: Aspergillus ustus AUMC No. 3605; test: In vitro antifungal assay (agar well); format: cell-based
Protocol: as §4

[13] = test system: Aspergillus flavus RCMB 002002; test: In vitro antifungal assay (agar well); format: cell-based
Protocol: as §4

[14] = test system: Candida albicans RCMB 005003 (1) ATCC 10231; test: In vitro antifungal assay (agar well); format: cell-based; conditions: 72 hours at 27° C.
Protocol: as §4

[15] = test system: Aspergillus niger AUMC No. 14408; test: In vitro antifungal assay (agar well); format: cell-based
Protocol: as §4

[16] = test system: Penicillium aurantiogriseum IMI 89372; test: In vitro antifungal assay (agar well); format: cell-based
Protocol: as §4

[17] = test system: Penicllium marneffeii RCMB 001034; test: In vitro antifungal assay (agar well); format: cell-based
Protocol: as §4

[18] = test system: Aspergillus nidulans AUMC No. 14333; test: In vitro antifungal assay (agar well); format: cell-based
Protocol: as §4

[19] = test system: Trichophyton rubrum AUMC No. 1804; test: In vitro antifungal assay (agar well); format: cell-based
Protocol: as §4

[20] = test system: Candida glabrata AUMC No. 9166; test: In vitro antifungal assay (agar well); format: cell-based; conditions: 72 hours at 27° C.
Protocol: as §4

[21] = test system: Mucor circillelloides AUMC No. 3704; test: In vitro antifungal assay (agar well); format: cell-based
Protocol: as §4

[22] = test system: Aspergillus flavus AUMC No. 1276; test: In vitro antifungal assay (agar well); format: cell-based
Protocol: as §4

[23] = test system: Aspergillus fumigatus AUMC No. 14358; test: In vitro antifungal assay (agar well); format: cell-based
Protocol: as §4

[24] = test system: Sporotlirix schenckii AUMC No. 2739; test: In vitro antifungal assay (agar well); format: cell-based
Protocol: as §4

[25] = test system: Microsporum canis AUMC No. 14454; test: In vitro antifungal assay (agar well); format: cell-based
Protocol: as §4

[26] = test system: Cryptococcus neoformans AUMC No. 2795; test: In vitro antifungal assay (agar well); format: cell-based
Protocol: as §4

[27] = test system: Candida lipolytica RCMB 005007; test: In vitro antifungal assay (agar well); format: cell-based; conditions: 72 hours at 27° C.
Protocol: as §4

[28] = test system: Fusarium moniliforme RCMB 001006; test: In vitro antifungal assay (agar well); format: cell-based
Protocol: as §4

[29] = test system: Penicillium italicum RCMB 001018 (1) IMI 193019; test: In vitro antifungal assay (agar well); format: cell-based
Protocol: as §4

[30] = test system: Trichophyton mentagrophytes AUMC No. 14492; test: In vitro antifungal assay (agar well); format: cell-based
Protocol: as §4

[31] = test system: Candida alibicans AUMC No. 9160; test: In vitro antifungal assay (agar well); format: cell-based; conditions: 72 hours at 27° C.
Protocol: as §4

[32] = test system: Candida tropicalis AUMC No. 9158; test: In vitro antifungal assay (agar well); format: cell-based; conditions: 72 hours at 27° C.
Protocol: as §4

[33] = immunocompromised mice, A. fumigatus i.v., 5 mg/kg oral daily for seven days
[34] = immunocompromised mice, C. albicans i.v., 5 mg/kg oral daily for seven days

CCCCCCOC(=O)NC(=N)c1ccc(NCc2nc3cc(C(=O)N(CCC(=O)OCC)c4ccccn4)ccc3n2C)cc1 [Dabigatran etexilate]
kidney histopathology (H&E) [1, 33]: modest improvements | lung histopathology (H&E), inflammation [1, 33]: decreased airspace areas because of red blood cells extravasation | liver histopathology (H&E) [1, 33]: Comparable histopathological injuries | heart histopathology (H&E) [1, 33]: comparable | serum levels of ALT, AST, uric acid, and creatinine [1]: significantly decreased all serum markers | kidney histopathology (H&E) [2, 34]: minor histological differences | liver histopathology (H&E) [2, 34]: typical hepatic architecture with the presence of very few inflammatory cells, moderate degeneration, and no necrosis | lung histopathology (H&E) [2, 34]: substantially improved | protective effect against systemic C. albicans fungal infection ([2]; mice, 5 mg/kg oral daily for seven days): potent protective effect | serum levels of ALT, AST, uric acid, and creatinine [2]: significantly decreased all serum markers | MIC [3]: 128 µg/mL (≈ 204 µM) | CD4+ T cells in vaginal tissue (IHC, figure legends) ([4]; FIGS. 18 and 19, number / migration to lamina propria): dramatically decreased | CD45-positive cells in vaginal tissue (IHC, semi-quantitative) [4]: Mild to moderate CD45-positive cells spread across the submucosa | vaginal histology (H&E) [4]: considerable reduction in inflammation and injury to the vaginal epithelial mucosa | CXCR4 expression in the vaginal epithelial mucosa (IHC) [4]: significant decrease | MIC [5]: 64 µg/mL (≈ 102 µM) | range of MIC values (31 fungal strains): 8 to 256 µg/mL | MIC [6]: 32 µg/mL (≈ 51 µM) | MIC [7]: 8 µg/mL (≈ 12.7 µM) | MIC [8]: 128 µg/mL (≈ 204 µM) | MIC [9]: 64 µg/mL (≈ 102 µM) | MIC [10]: 128 µg/mL (≈ 204 µM) | MIC [11]: 16 µg/mL (≈ 25.5 µM) | MIC [12]: 64 µg/mL (≈ 102 µM) | MIC [13]: 128 µg/mL (≈ 204 µM) | MIC [14]: 16 µg/mL (≈ 25.5 µM) | MIC [15]: 128 µg/mL (≈ 204 µM) | MIC [16]: 32 µg/mL (≈ 51 µM) | MIC [17]: 256 µg/mL (≈ 408 µM) | MIC [18]: 64 µg/mL (≈ 102 µM) | MIC [19]: 32 µg/mL (≈ 51 µM) | MIC [20]: 32 µg/mL (≈ 51 µM) | MIC [21]: 64 µg/mL (≈ 102 µM) | MIC [22]: 64 µg/mL (≈ 102 µM) | MIC [23]: 128 µg/mL (≈ 204 µM) | MIC [24]: 16 µg/mL (≈ 25.5 µM) | MIC [25]: 128 µg/mL (≈ 204 µM) | MIC [26]: 32 µg/mL (≈ 51 µM) | MIC [27]: 16 µg/mL (≈ 25.5 µM) | MIC [28]: 16 µg/mL (≈ 25.5 µM) | MIC [29]: 64 µg/mL (≈ 102 µM) | MIC [30]: 32 µg/mL (≈ 51 µM) | MIC [31]: 32 µg/mL (≈ 51 µM) | MIC [32]: 128 µg/mL (≈ 204 µM)

OC(Cn1cncn1)(Cn1cncn1)c1ccc(F)cc1F [fluconazole]
liver histopathology (H&E) [1, 33]: Comparable histopathological injuries | heart histopathology (H&E) [1, 33]: comparable | serum levels of ALT, AST, uric acid, and creatinine [1]: significant decrease in all markers, except creatinine | liver histopathology (H&E) [2, 34]: moderate inflammatory cell infiltration in the perivascular regions, mild sinusoidal congestion, and few apoptotic cells | lung histopathology (H&E) [2, 34]: slightly ameliorated the lung damage | serum levels of ALT, AST, uric acid, and creatinine [2]: significant decrease in ALT levels only | CD45-positive cells in vaginal tissue (IHC, semi-quantitative) [4]: Mild to moderate CD45-positive cells spread across the submucosa | vaginal histology (H&E) [4]: modest sub-epithelial inflammatory reaction | CXCR4 expression in the vaginal epithelial mucosa (IHC) [4]: significant decrease
